Experimental data reported in PMC4301955 (ChemMedChem, 2012).
Where “and” joins values, the source holds several entries; their conditions need not be identical. Equal entries are not always repeated.

Tests used:
ERα+ MCF-7 cells = conditions: for Agonist mode MCF-7 (% E2): ERα+ MCF-7 cells with ERE reporter, average efficacy (mean ± s.e.m.) as percentage of 10^−5 M 17β-estradiol
[1] = target: purified full-length human ERβ (Homo sapiens, UniProt Q92731); conditions: IC50 estradiol/IC50 compound ×100, estradiol = 100%; ± range or SD, n = 2–3; 10 nM [3H]estradiol, 18–24 h at 0 °C
[2] = target: T1, purified full-length human ERα (Homo sapiens, UniProt P03372); conditions: for Relative binding affinity (RBA) ERα: IC50 estradiol/IC50 compound ×100, estradiol = 100%, ± range or SD, n = 2–3, 10 nM [3H]estradiol, 18–24 h at 0 °C
T1 sequence (P03372 1-595): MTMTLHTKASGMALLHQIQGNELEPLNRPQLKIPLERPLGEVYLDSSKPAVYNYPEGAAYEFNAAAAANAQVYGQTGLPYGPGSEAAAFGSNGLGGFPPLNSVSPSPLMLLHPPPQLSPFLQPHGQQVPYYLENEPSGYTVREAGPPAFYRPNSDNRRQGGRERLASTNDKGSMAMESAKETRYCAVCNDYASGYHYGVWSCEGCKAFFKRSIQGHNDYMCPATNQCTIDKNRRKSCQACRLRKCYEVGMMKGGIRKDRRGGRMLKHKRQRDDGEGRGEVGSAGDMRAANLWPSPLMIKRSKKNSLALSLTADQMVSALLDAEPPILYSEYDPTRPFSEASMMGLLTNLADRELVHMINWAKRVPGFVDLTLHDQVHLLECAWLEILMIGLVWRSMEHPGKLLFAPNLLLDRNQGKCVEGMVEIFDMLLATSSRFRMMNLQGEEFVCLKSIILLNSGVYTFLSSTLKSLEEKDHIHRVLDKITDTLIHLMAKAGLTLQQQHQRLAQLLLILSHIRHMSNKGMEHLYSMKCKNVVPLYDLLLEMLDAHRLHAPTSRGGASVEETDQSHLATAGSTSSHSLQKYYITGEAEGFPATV

full-length human ERβ [3] = target: T2, full-length human ERβ (Homo sapiens, UniProt Q92731); format: cell-based
full-length human ERα = target: T3, full-length human ERα (Homo sapiens, UniProt P03372); format: cell-based; conditions: for Agonist mode ERα (% E2): HepG2 cells, average efficacy (mean ± s.e.m.) as percentage of 10^−5 M 17β-estradiol
T3 sequence (P03372 1-595): T1 sequence (P03372 1-595)

full-length human ERβ [4] = target: T2, full-length human ERβ; format: cell-based; conditions: HepG2 cells; average efficacy (mean ± s.e.m.) as percentage of 10^−5 M 17β-estradiol

Sequence of purified full-length human ERβ (Q92731 whole entry): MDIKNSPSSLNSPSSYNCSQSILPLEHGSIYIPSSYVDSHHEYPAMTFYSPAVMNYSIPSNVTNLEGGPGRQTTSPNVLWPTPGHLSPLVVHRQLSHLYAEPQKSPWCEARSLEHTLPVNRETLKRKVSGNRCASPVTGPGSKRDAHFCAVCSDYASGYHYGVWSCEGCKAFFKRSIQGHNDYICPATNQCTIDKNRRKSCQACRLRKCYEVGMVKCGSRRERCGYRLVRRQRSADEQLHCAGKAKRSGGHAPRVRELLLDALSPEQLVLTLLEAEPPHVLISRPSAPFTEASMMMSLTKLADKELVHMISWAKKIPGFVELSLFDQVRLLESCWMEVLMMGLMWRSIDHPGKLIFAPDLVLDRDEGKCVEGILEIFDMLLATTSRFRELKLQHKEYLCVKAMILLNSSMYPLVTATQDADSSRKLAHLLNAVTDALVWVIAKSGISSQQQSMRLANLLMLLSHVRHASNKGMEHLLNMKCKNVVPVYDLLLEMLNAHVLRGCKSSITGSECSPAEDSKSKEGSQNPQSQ
T2 sequence (Q92731 whole entry): as above

Row | SMILES | Relative binding affinity (RBA) ERβ [1] | Relative binding affinity (RBA) ERα [2] | IC50 (full-length human ERβ [3]) | EC50 (full-length human ERα) | Agonist mode ERα (% E2) (full-length human ERα) | Agonist mode ERβ (% E2) (full-length human ERβ [4]) | α/β ratio ([2]; ratio of the RBA for ERα to the RBA for ERβ) | Activity profile in MCF-7 cells (in words) (ERα+ MCF-7 cells; 3xERE-luciferase, ERα-positive MCF-7 cells) | Agonist mode MCF-7 (% E2) (ERα+ MCF-7 cells) | Antagonist mode ERβ (% E2) (full-length human ERβ [3])
1 | O=S(=O)(Oc1ccccc1)[C@H]1C[C@H]2O[C@@H]1C(c1ccc(O)cc1)=C2c1ccc(O)cc1 [Compound 1] | – | – | – | – | – | – | – | limited agonist activity | 21 ± 4 % E2 | –
2 | CC/C(=C(\c1ccc(O)cc1)c1ccc(OCCN(C)C)cc1)c1ccccc1 [Compound 4-OHT, 4-hydroxytamoxifen, reference compound] | – | – | – | – | – | −1 ± 1 % E2 | – | – | −11 ± 1 % E2 | −20 ± 2 % E2
3 | C[C@]12CC[C@@H]3c4ccc(O)cc4C[C@@H](CCCCCCCCC[S+]([O-])CCCC(F)(F)C(F)(F)F)[C@H]3[C@@H]1CC[C@@H]2O (some centres unmarked) [Faslodex, reference compound] | – | – | – | – | 1 ± 1 % E2 | – | – | – | −4 ± 4 % E2 | –

Continued, in another order:

Row | Relative binding affinity (RBA) ERβ [1] | Relative binding affinity (RBA) ERα [2] | IC50 (full-length human ERβ [3]) | EC50 (full-length human ERα) | Agonist mode ERα (% E2) (full-length human ERα) | Agonist mode ERβ (% E2) (full-length human ERβ [4]) | α/β ratio ([2]; ratio of the RBA for ERα to the RBA for ERβ) | SMILES | Activity profile in MCF-7 cells (in words) (ERα+ MCF-7 cells; 3xERE-luciferase, ERα-positive MCF-7 cells) | Agonist mode MCF-7 (% E2) (ERα+ MCF-7 cells) | Antagonist mode ERβ (% E2) (full-length human ERβ [3])
4 | 1.76% and 1.76 ±0.13% | 19.0% and 19.00 ±4.6% | > 10 µM | > 10 µM | 29 ± 5 % E2 | 1 ± 1 % E2 | – | O=S(=O)(Oc1ccccc1Cl)C1CC2OC1C(c1ccc(O)cc1)=C2c1ccc(O)cc1 (centres unmarked) [Compound 2b, 5,6-Bis-(4-hydroxyphenyl)-7-oxabicyclo[2.2.1]hept-5-ene-2-sulfonic Acid 2-Chlorophenyl Ester] | – | −7 ± 2 % E2 | –
5 | 0.478 ±0.12% | 5.03 ±1.5% | – | – | 29 ± 1 % E2 | 1 ± 2 % E2 | 10.52 | O=S(=O)(Oc1cccc2ccccc12)C1CC2OC1C(c1ccc(O)cc1)=C2c1ccc(O)cc1 (centres unmarked) [Compound 2m] | – | −4 ± 1 % E2 | –
